PubChem BioAssay (NCI)
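A five-concentration, 48-hour dose response in 96-well plates underlies each endpoint, interpolated linearly between surrounding concentrations. Definition used: TGI = concentration required for complete inhibition of growth.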

Key:
Test in all cases: NCI-60 cell line screen, 48 h
786-0 renal = system: 786-0 renal
A498 renal = system: A498 renal
A549 NSCLC = system: A549 NSCLC
ACHN renal = system: ACHN renal
CCRF-CEM leukemia = system: CCRF-CEM leukemia
COLO 205 colon = system: COLO 205 colon
HCT-116 colon = system: HCT-116 colon
HOP-62 NSCLC = system: HOP-62 NSCLC
M14 melanoma = system: M14 melanoma
MDA-MB-231 breast = system: MDA-MB-231 breast
MOLT-4 leukemia = system: MOLT-4 leukemia
NCI-H522 lung = system: NCI-H522 lung
OVCAR-3 ovarian = system: OVCAR-3 ovarian
OVCAR-4 ovarian = system: OVCAR-4 ovarian
OVCAR-8 ovarian = system: OVCAR-8 ovarian
RXF 393 renal = system: RXF 393 renal
SN12C renal = system: SN12C renal
T-47D breast = system: T-47D breast
U251 CNS = system: U251 CNS
UACC-257 melanoma = system: UACC-257 melanoma

SMILES	TGI (786-0 renal)	TGI (A498 renal)	TGI (A549 NSCLC)	TGI (ACHN renal)	TGI (CCRF-CEM leukemia)	TGI (COLO 205 colon)	TGI (HCT-116 colon)	TGI (HOP-62 NSCLC)	TGI (M14 melanoma)	TGI (MDA-MB-231 breast)	TGI (MOLT-4 leukemia)	TGI (NCI-H522 lung)	TGI (OVCAR-3 ovarian)	TGI (OVCAR-4 ovarian)	TGI (OVCAR-8 ovarian)	TGI (RXF 393 renal)	TGI (SN12C renal)	TGI (T-47D breast)	TGI (U251 CNS)	TGI (UACC-257 melanoma)
Cn1c(=O)oc2cc(C(O)CN3CCN(Cc4ccccn4)CC3)c(Cl)cc21 (stereo not given)	> 100 µM	> 100 µM	> 100 µM	> 100 µM	> 100 µM	> 100 µM	> 100 µM	> 100 µM	> 100 µM	> 100 µM	> 100 µM	> 100 µM	> 100 µM	> 100 µM	> 100 µM	> 100 µM	> 100 µM	> 100 µM	> 100 µM	> 100 µM
O=C(/C=C/c1ccc(OCc2cccc(Cl)c2)cc1)NO	23.9 µM	27.8 µM	51.2 µM	23.5 µM	26.6 µM	32 µM	25.8 µM	> 100 µM	> 100 µM	44.1 µM	18 µM	49.4 µM	> 100 µM	38 µM	20.3 µM	42.4 µM	49.4 µM	36.7 µM	47.9 µM	> 100 µM
CCC(C)C1NC(=O)C(NC(=O)c2c3[nH]c4c(C(=O)NC5C(=O)NC(C(C)CC)C(=O)N6CCCC6C(=O)N(C)CC(=O)N(C)C(C(C)C)C(=O)OC5C)ccc(C)c4oc-3c(C)c(=O)c2=O)C(C)OC(=O)C(C(C)C)N(C)C(=O)CN(C)C(=O)C2CCCN2C1=O (stereo not given)	> 79.9 µM	39.4 µM	> 100 µM	65.2 µM	9.81 µM	13.4 µM	40.4 µM	> 100 µM	40.5 µM	55.2 µM	> 39.8 µM	5.06 µM	62.9 µM	> 89.1 µM	38.3 µM	25 µM	> 100 µM	> 40.5 µM	> 100 µM	38.6 µM
C/C(=N/NC(=S)Nc1ccc(Cl)cc1)c1cccc(/C(C)=N\NC(=S)Nc2ccc(Cl)cc2)n1	21 µM	79.5 µM	53.2 µM	40.3 µM	> 100 µM	30.7 µM	22.4 µM	45 µM	8.53 µM	48.4 µM	16.7 µM	27 µM	47.1 µM	> 100 µM	8.69 µM	27.1 µM	> 100 µM	> 100 µM	60.3 µM	46.8 µM
CC(=O)Oc1ccc2c(c1)c1c(=O)oc(C)nc1n2Cc1ccccc1	> 100 µM	> 74.6 µM	> 100 µM	> 100 µM	> 100 µM	> 100 µM	> 100 µM	> 100 µM	> 100 µM	> 100 µM	> 100 µM	60.5 µM	> 100 µM	> 100 µM	> 100 µM	68.5 µM	> 100 µM	> 100 µM	> 100 µM	> 100 µM
